Measured values from PubChem BioAssay AID1963438 (Molecular Pharmacology Branch, DTP, NCI, 2024).

Test system: NCI-H510 multicellular tumor spheroid growth, % test/control
Experiment: Anticancer human tumor NCI-H510 cell line growth inhibition [Asc];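 also: spheroids exposed to agents for 7 days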;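 as to viability, T/C: 100% = DMSO vehicle control wells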
Settings: for IC50: curve of first compound; for viability, T/C: stronger effect = lower value
In short: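 Concentration series start at each agent's clinical Cmax, or at 10 microM when none is established, and drop in half-log steps; agents are applied alone or together to complex spheroids built with HUVEC and hMSC.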

## C=C(F)C(=O)N1CCN(c2nc(OCC3CCCN3C)nc3c2CCN(c2cccc4cccc(Cl)c24)C3)CC1CC#N (stereo not given) + CNC(C)C(=O)NC1CN(S(=O)(=O)c2cccc(S(=O)(=O)N3CCC4CCC(C(=O)NC(c5ccccc5)c5ccccc5)N4C(=O)C(NC(=O)C(C)NC)C3)c2)CCC2CCC(C(=O)NC(c3ccccc3)c3ccccc3)N2C1=O
Second compound 0.01 µM
  IC50: 1.96 µM
Second compound 0.0316 µM
  IC50: 1.86 µM
Second compound 0.1 µM
  IC50: 1.75 µM
Second compound 0.316 µM
  IC50: 1.7 µM
Second compound 1 µM
  IC50: 1.83 µM
Second compound 0.01 µM, first compound 0.0316 µM
  viability, T/C: 125%
Second compound 0.01 µM, first compound 0.1 µM
  viability, T/C: 117%
Second compound 0.01 µM, first compound 0.316 µM
  viability, T/C: 108%
Second compound 0.01 µM, first compound 1 µM
  viability, T/C: 116%
Second compound 0.01 µM, first compound 3.16 µM
  viability, T/C: 2.75%
Second compound 0.01 µM, first compound 10 µM
  viability, T/C: 0.14%
Second compound 0.0316 µM, first compound 0.0316 µM
  viability, T/C: 115%
Second compound 0.0316 µM, first compound 0.1 µM
  viability, T/C: 101%
Second compound 0.0316 µM, first compound 0.316 µM
  viability, T/C: 104%
Second compound 0.0316 µM, first compound 1 µM
  viability, T/C: 108%
Second compound 0.0316 µM, first compound 3.16 µM
  viability, T/C: 1.63%
Second compound 0.0316 µM, first compound 10 µM
  viability, T/C: 0.13%
Second compound 0.1 µM, first compound 0.0316 µM
  viability, T/C: 102%
Second compound 0.1 µM, first compound 0.1 µM
  viability, T/C: 119%
Second compound 0.1 µM, first compound 0.316 µM
  viability, T/C: 110%
Second compound 0.1 µM, first compound 1 µM
  viability, T/C: 96.4%
Second compound 0.1 µM, first compound 3.16 µM
  viability, T/C: 1.1%
Second compound 0.1 µM, first compound 10 µM
  viability, T/C: 0.14%
Second compound 0.316 µM, first compound 0.0316 µM
  viability, T/C: 97.4%
Second compound 0.316 µM, first compound 0.1 µM
  viability, T/C: 124%
Second compound 0.316 µM, first compound 0.316 µM
  viability, T/C: 115%
Second compound 0.316 µM, first compound 1 µM
  viability, T/C: 89.4%
Second compound 0.316 µM, first compound 3.16 µM
  viability, T/C: 4.39%
Second compound 0.316 µM, first compound 10 µM
  viability, T/C: 0.13%
Second compound 1 µM, first compound 0.0316 µM
  viability, T/C: 115%
Second compound 1 µM, first compound 0.1 µM
  viability, T/C: 105%
Second compound 1 µM, first compound 0.316 µM
  viability, T/C: 108%
Second compound 1 µM, first compound 1 µM
  viability, T/C: 104%
Second compound 1 µM, first compound 3.16 µM
  viability, T/C: 0.85%
Second compound 1 µM, first compound 10 µM
  viability, T/C: 0.22%

## NC1CCC(NC2CC2c2ccccc2)CC1 (stereo not given) + CCN1C(C(=O)NC23CCC(C(=O)O)(CC2)CC3)C(c2cccc(Cl)c2F)C2(C(=O)Nc3cc(Cl)ccc32)C12CCCCC2
Second compound 0.03 µM
  IC50: > 0.1 µM
Second compound 0.0949 µM
  IC50: > 0.1 µM
Second compound 0.3 µM
  IC50: > 0.1 µM
Second compound 0.949 µM
  IC50: > 0.1 µM
Second compound 3 µM
  IC50: 0.0848 µM
Second compound 0.03 µM, first compound 0.000316 µM
  viability, T/C: 85.9%
Second compound 0.03 µM, first compound 0.001 µM
  viability, T/C: 84.4%
Second compound 0.03 µM, first compound 0.00316 µM
  viability, T/C: 82.5%
Second compound 0.03 µM, first compound 0.01 µM
  viability, T/C: 81.9%
Second compound 0.03 µM, first compound 0.0316 µM
  viability, T/C: 92.4%
Second compound 0.03 µM, first compound 0.1 µM
  viability, T/C: 91.9%
Second compound 0.0949 µM, first compound 0.000316 µM
  viability, T/C: 101%
Second compound 0.0949 µM, first compound 0.001 µM
  viability, T/C: 71.6%
Second compound 0.0949 µM, first compound 0.00316 µM
  viability, T/C: 77.5%
Second compound 0.0949 µM, first compound 0.01 µM
  viability, T/C: 78.7%
Second compound 0.0949 µM, first compound 0.0316 µM
  viability, T/C: 60.6%
Second compound 0.0949 µM, first compound 0.1 µM
  viability, T/C: 71.3%
Second compound 0.3 µM, first compound 0.000316 µM
  viability, T/C: 92.4%
Second compound 0.3 µM, first compound 0.001 µM
  viability, T/C: 85.8%
Second compound 0.3 µM, first compound 0.00316 µM
  viability, T/C: 98.3%
Second compound 0.3 µM, first compound 0.01 µM
  viability, T/C: 95.8%
Second compound 0.3 µM, first compound 0.0316 µM
  viability, T/C: 73.3%
Second compound 0.3 µM, first compound 0.1 µM
  viability, T/C: 55.8%
Second compound 0.949 µM, first compound 0.000316 µM
  viability, T/C: 83.8%
Second compound 0.949 µM, first compound 0.001 µM
  viability, T/C: 92.9%
Second compound 0.949 µM, first compound 0.00316 µM
  viability, T/C: 90.6%
Second compound 0.949 µM, first compound 0.01 µM
  viability, T/C: 80.8%
Second compound 0.949 µM, first compound 0.0316 µM
  viability, T/C: 72.3%
Second compound 0.949 µM, first compound 0.1 µM
  viability, T/C: 60.5%
Second compound 3 µM, first compound 0.000316 µM
  viability, T/C: 106%
Second compound 3 µM, first compound 0.001 µM
  viability, T/C: 82.3%
Second compound 3 µM, first compound 0.00316 µM
  viability, T/C: 79.8%
Second compound 3 µM, first compound 0.01 µM
  viability, T/C: 75.2%
Second compound 3 µM, first compound 0.0316 µM
  viability, T/C: 60%
Second compound 3 µM, first compound 0.1 µM
  viability, T/C: 46.6%
